The source of these data is PubChem BioAssay AID330 (DTP/NCI, 2004).

This assay concerns P388 leukemia ip, CD2F1 mice, survival T/C. The experiment in a line: NCI In Vivo Anticancer Drug Screen. Data for tumor model P388 Leukemia (intraperitoneal) in CD2F1 (CDF1) mice. Conditions: endpoint: median survival time, higher = longer survival. The essentials: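 Mice carrying the transplanted tumor received test compound or vehicle. Survival was recorded in each group, and the value is the treated-group measurement divided by that of the vehicle-treated control group.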

The mark [1] stands for this setting: dose: 50.0 mg/kg/injection, schedule: Q01DX005 (ip), vehicle: saline with Tween-80.
[2] abbreviates: dose: 100.0 mg/kg/injection, schedule: Q01DX005 (ip), vehicle: saline with Tween-80.
The mark [3] stands for this setting: dose: 200.0 mg/kg/injection, schedule: Q01DX005 (ip), vehicle: saline with Tween-80.
Setting [4] is: dose: 50.0 mg/kg/injection, schedule: Q01DX005 (ip), vehicle: Klucel (hydroxypropylcellulose) (HPC).
The mark [5] stands for this setting: dose: 100.0 mg/kg/injection, schedule: Q01DX005 (ip), vehicle: Klucel (hydroxypropylcellulose) (HPC).
The mark [6] stands for this setting: dose: 200.0 mg/kg/injection, schedule: Q01DX005 (ip), vehicle: Klucel (hydroxypropylcellulose) (HPC).
The mark [7] stands for this setting: dose: 50.0 mg/kg/injection, schedule: Q01DX009 (ip), vehicle: Klucel (hydroxypropylcellulose) (HPC).
[8] abbreviates: dose: 100.0 mg/kg/injection, schedule: Q01DX009 (ip), vehicle: Klucel (hydroxypropylcellulose) (HPC).
Where [9] appears, read: dose: 50.0 mg/kg/injection, schedule: Q01DX009 (ip), vehicle: saline with Tween-80.
The mark [10] stands for this setting: dose: 100.0 mg/kg/injection, schedule: Q01DX009 (ip), vehicle: saline with Tween-80.
The mark [11] stands for this setting: dose: 200.0 mg/kg/injection, schedule: Q01DX009 (ip), vehicle: saline with Tween-80.
[12] abbreviates: dose: 50.0 mg/kg/injection, schedule: Q01DX005 (ip), vehicle: saline.
Setting [13] is: dose: 200.0 mg/kg/injection, schedule: Q01DX009 (ip), vehicle: Klucel (hydroxypropylcellulose) (HPC).

Where “and” joins values, the source holds several entries; their conditions need not be identical. Equal entries are not always repeated. Toxic doses and inconclusive results are not listed.

For the compound `COC(=O)/C=C/CS(C)(=O)=O`, the T/C by setting is: under setting [1], 105 % of control; under setting [2], 101 % of control; under setting [3], 99 % of control.

As for `Cc1nc(Nc2c(C)cccc2C)c2c(-c3ccccc3)c[nH]c2n1`, the T/C runs as follows: under setting [4], 99 % of control; under setting [5], 94 % of control; under setting [6], 92 % of control.

`CCCCCCCCCCCCCCCCCC(=O)OCCCCCCCCCCCCC`: the T/C by setting is: (dose: 100.0 mg/kg/injection, schedule: Q01DX001 (ip), vehicle: other) 95 % of control; (dose: 200.0 mg/kg/injection, schedule: Q01DX001 (ip), vehicle: other) 100 % of control; (dose: 400.0 mg/kg/injection, schedule: Q01DX001 (ip), vehicle: other) 95 % of control.

Regarding `CNCC(O)CC12CCC(c3ccccc31)c1ccccc12` (stereo not given), the T/C under setting [7] was 104 % of control and the T/C under setting [8] was 106 % of control.

Regarding `CCC(CC)(COS(C)(=O)=O)COS(C)(=O)=O`, the T/C reads like this: under setting [9], 104 % of control; under setting [10], 101 % of control; under setting [11], 90 % of control; (dose: 400.0 mg/kg/injection, schedule: Q01DX009 (ip), vehicle: saline with Tween-80) 89 % of control.

Regarding `C=CCN(CC=C)CC(C)(O)CNc1cc(OC)cc2cccnc12` (stereo not given), the T/C runs as follows: under setting [12], 107 % of control; (dose: 100.0 mg/kg/injection, schedule: Q01DX005 (ip), vehicle: saline) 101 % of control.

On to `Fc1c(F)c(-c2c(F)c(F)c(OCC3CO3)c(F)c2F)c(F)c(F)c1OCC1CO1` (stereo not given), for which the T/C reads like this: under setting [7], 98 % of control; under setting [8], 103 % of control; under setting [13], 102 % of control.

For the compound `O/N=C1\CCC2CCCCC12` (stereo not given), the T/C was 98 % of control under setting [4], 102 % of control under setting [5] and 107 % of control under setting [6].

For `COC1(OC)C(c2cccs2)C(C#N)(C#N)C1(OC)OC` (stereo not given), the T/C reads like this: (dose: 60.0 mg/kg/injection, schedule: Q01DX005 (ip), vehicle: Klucel (hydroxypropylcellulose) (HPC)) 100 % of control; (dose: 120.0 mg/kg/injection, schedule: Q01DX005 (ip), vehicle: Klucel (hydroxypropylcellulose) (HPC)) 105 % of control; (dose: 240.0 mg/kg/injection, schedule: Q01DX005 (ip), vehicle: Klucel (hydroxypropylcellulose) (HPC)) 100 % of control.

For `COc1cc2c(cc1OC)C13CCN4CC5=CCOC6CC(=O)N2C1C6C5C3C4` (stereo not given) (tested in a mixture with another compound), the T/C is, setting by setting: (dose: 12.5 mg/kg/injection, schedule: Q01DX005 (ip), vehicle: saline) 90 % of control; (dose: 25.0 mg/kg/injection, schedule: Q01DX005 (ip), vehicle: saline) 95 % of control; under setting [12], 98 % of control.

For the compound `Cn1c(N2CCN(CCO)CC2)nc2c1c(=O)n(CC(O)CN1CCN(CCO)CC1)c(=O)n2C` (stereo not given), the T/C runs as follows: under setting [7], 89 % of control; under setting [8], 97 % of control; under setting [13], 107 % of control.

As to `O=c1oc(-c2ccccc2)cc(N2CCCCC2)c1Cl`, the T/C is 97 % of control under setting [9], 97 % of control under setting [10] and 97 % of control under setting [11].

As for `CC(=O)N(c1ccccc1)[Si](C)(C)C`, the T/C runs as follows: (dose: 100.0 mg/kg/injection, schedule: Q01DX001 (ip), vehicle: saline with Tween-80) 107 % of control; (dose: 200.0 mg/kg/injection, schedule: Q01DX001 (ip), vehicle: saline with Tween-80) 106 % of control; (dose: 400.0 mg/kg/injection, schedule: Q01DX001 (ip), vehicle: saline with Tween-80) 100 % of control.

As for `O=C(/C=C/c1ccccc1)CC1=NC2NN(c3ccccc3)C(=O)C2=C1CC(=O)/C=C/c1ccccc1` (stereo not given), the T/C reads like this: (dose: 60.0 mg/kg/injection, schedule: Q01DX005 (ip), vehicle: suspension in saline) 95 % of control; (dose: 120.0 mg/kg/injection, schedule: Q01DX005 (ip), vehicle: suspension in saline) 99 % of control; (dose: 240.0 mg/kg/injection, schedule: Q01DX005 (ip), vehicle: suspension in saline) 107 % of control.

For the compound `Cc1[nH]nc(N)c1C(N)=O`, the T/C was 100 % of control (dose: 60.0 mg/kg/injection, schedule: Q01DX005 (ip), vehicle: saline with Tween-80); 99 % of control (dose: 120.0 mg/kg/injection, schedule: Q01DX005 (ip), vehicle: saline with Tween-80); 86 % of control (dose: 240.0 mg/kg/injection, schedule: Q01DX005 (ip), vehicle: saline with Tween-80).

Turning to `CN=C(N)N/N=C(\C)c1ccc2c(c1)Cc1cc(Br)ccc1-2`, the T/C by setting is: (dose: 6.25 mg/kg/injection, schedule: Q04DX002 (ip), vehicle: saline with Tween-80) 102 % of control; (dose: 12.5 mg/kg/injection, schedule: Q04DX002 (ip), vehicle: saline with Tween-80) 105 % of control; (dose: 25.0 mg/kg/injection, schedule: Q04DX002 (ip), vehicle: saline with Tween-80) 105 % of control and 124 % of control; (dose: 50.0 mg/kg/injection, schedule: Q04DX002 (ip), vehicle: saline with Tween-80) 98 % of control and 101 % of control.

Take `CC1(C)CCC2(C(=O)O)CCC3(C)C(=CCC4C5(C)CC(O)C(O)C(C)(C(=O)O)C5CCC43C)C2C1` (stereo not given): the T/C by setting is: (dose: 1.0 mg/kg/injection, schedule: Q01DX005 (ip), vehicle: saline) 96 % of control; (dose: 2.03 mg/kg/injection, schedule: Q01DX005 (ip), vehicle: saline) 94 % of control; (dose: 4.06 mg/kg/injection, schedule: Q01DX005 (ip), vehicle: saline) 87 % of control; (dose: 8.12 mg/kg/injection, schedule: Q01DX005 (ip), vehicle: saline) 90 % of control.

Consider `CC(=O)N[C@@H](Cc1ccc(N(CCCl)CCCl)cc1)C(=O)ON1C(=O)CCC1=O`, for which the T/C is, setting by setting: (dose: 5.8 mg/kg/injection, schedule: Q01DX009 (ip), vehicle: saline) 168 % of control; (dose: 5.8 mg/kg/injection, schedule: Q03HX008 (ip), vehicle: saline) 160 % of control; (dose: 11.6 mg/kg/injection, schedule: Q01DX009 (ip), vehicle: saline) 190 % of control; (dose: 11.6 mg/kg/injection, schedule: Q03HX008 (ip), vehicle: saline) 195 % of control; (dose: 23.2 mg/kg/injection, schedule: Q03HX008 (ip), vehicle: saline) 260 % of control.

Regarding `O=C1C=C(Nc2ccccn2)C(=O)C=C1Nc1ccccn1`, the T/C under setting [1] is 107 % of control, the T/C under setting [2] was 107 % of control and the T/C under setting [3] was 105 % of control.

Consider `O=C(Cl)c1ccccc1Sc1ccccc1`, for which the T/C by setting is: (dose: 25.0 mg/kg/injection, schedule: Q01DX009 (ip), vehicle: saline with Tween-80) 95 % of control; (dose: 25.0 mg/kg/injection, schedule: Q04DX003 (ip), vehicle: saline with Tween-80) 100 % of control; under setting [9], 90 % of control; (dose: 50.0 mg/kg/injection, schedule: Q04DX003 (ip), vehicle: saline with Tween-80) 100 % of control; under setting [10], 100 % of control; (dose: 100.0 mg/kg/injection, schedule: Q04DX003 (ip), vehicle: saline with Tween-80) 100 % of control.

Take `Nc1ccc2c(c1)C1C(C3C2C2(Cl)C(Cl)=C(Cl)C3(Cl)C2(Cl)Cl)C2(Cl)C(Cl)=C(Cl)C1(Cl)C2(Cl)Cl` (stereo not given): the T/C runs as follows: (dose: 12.5 mg/kg/injection, schedule: Q01DX009 (ip), vehicle: saline) 97 % of control; (dose: 25.0 mg/kg/injection, schedule: Q01DX009 (ip), vehicle: saline) 109 % of control; (dose: 50.0 mg/kg/injection, schedule: Q01DX009 (ip), vehicle: saline) 100 % of control and 95 % of control; (dose: 100.0 mg/kg/injection, schedule: Q01DX009 (ip), vehicle: saline) 100 % of control; (dose: 200.0 mg/kg/injection, schedule: Q01DX009 (ip), vehicle: saline) 98 % of control.

On to `O=C1c2ccccc2C(=O)c2c(NCCSCCO)ccc(NCCSCCO)c21`, for which the T/C is, setting by setting: (dose: 16.0 mg/kg/injection, schedule: Q01DX009 (ip), vehicle: Klucel (hydroxypropylcellulose) (HPC)) 92 % of control; (dose: 32.0 mg/kg/injection, schedule: Q01DX009 (ip), vehicle: Klucel (hydroxypropylcellulose) (HPC)) 96 % of control; (dose: 64.0 mg/kg/injection, schedule: Q01DX009 (ip), vehicle: Klucel (hydroxypropylcellulose) (HPC)) 89 % of control; (dose: 128.0 mg/kg/injection, schedule: Q01DX009 (ip), vehicle: Klucel (hydroxypropylcellulose) (HPC)) 86 % of control.
